Source: patent publication US11053300B2, “Membrane span-kinase fusion protein and the uses thereof” (VIB VZW, priority 2012, dated 2021)

How the values were obtained:
ERN1 [1] = molecular target: T1, ERN1 (Homo sapiens, UniProt O75460); details: reported, Feldman and Koong, 2007; cited from earlier work
Target sequence in this assay (O75460 19-977, species assumed): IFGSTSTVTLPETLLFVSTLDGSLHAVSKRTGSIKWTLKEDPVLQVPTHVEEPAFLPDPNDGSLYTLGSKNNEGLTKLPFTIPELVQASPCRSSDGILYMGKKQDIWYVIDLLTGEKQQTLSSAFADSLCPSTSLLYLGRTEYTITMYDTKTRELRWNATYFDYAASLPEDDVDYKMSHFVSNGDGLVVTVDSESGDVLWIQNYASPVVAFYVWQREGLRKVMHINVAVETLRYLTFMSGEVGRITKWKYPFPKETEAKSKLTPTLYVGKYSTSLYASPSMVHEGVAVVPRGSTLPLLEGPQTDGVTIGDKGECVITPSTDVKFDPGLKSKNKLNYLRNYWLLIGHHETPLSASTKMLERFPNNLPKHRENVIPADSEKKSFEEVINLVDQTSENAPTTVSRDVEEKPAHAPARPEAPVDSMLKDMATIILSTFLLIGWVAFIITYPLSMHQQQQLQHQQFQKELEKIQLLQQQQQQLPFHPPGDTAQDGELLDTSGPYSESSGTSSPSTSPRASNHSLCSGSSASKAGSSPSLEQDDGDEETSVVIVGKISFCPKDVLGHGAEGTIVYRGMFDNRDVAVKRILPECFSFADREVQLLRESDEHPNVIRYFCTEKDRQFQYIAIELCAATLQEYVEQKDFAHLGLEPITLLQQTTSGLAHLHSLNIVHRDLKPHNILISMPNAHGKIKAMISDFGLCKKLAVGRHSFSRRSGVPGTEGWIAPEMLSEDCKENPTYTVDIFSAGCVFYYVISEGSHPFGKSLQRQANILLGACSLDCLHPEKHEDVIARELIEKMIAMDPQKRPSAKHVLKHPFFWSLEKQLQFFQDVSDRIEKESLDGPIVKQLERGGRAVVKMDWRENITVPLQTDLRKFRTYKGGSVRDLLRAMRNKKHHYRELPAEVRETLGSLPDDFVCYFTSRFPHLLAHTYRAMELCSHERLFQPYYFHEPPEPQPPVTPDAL

ERN1 [2] = molecular target: T1, ERN1; assay: ERN1 dimerization, ERN1-Tyk2(C)/ERN1-gp130 luciferase reporter assay; format: cell-based; set-up: Flag (N); expressed in transfected cells; host or cells: HEK293-T
Description: Transfections were carried out using a standard calcium phosphate method. HEK293-T cells were seeded in black tissue-culture treated 96-well plates at 10.000 cells/well in 100 μl culture medium (DMEM supplemented with 10% FCS). Twenty-four hours later, plasmid DNA mixes were prepared that contained plasmids encoding fusion proteins with the first and second interacting proteins and reporter plasmids. The DNA was supplemented with 5 μl 2.5M CaCl2) and double distilled water to a final volume of 50 μl. This mixture was added drop wise to 50 μl 2×HeBS buffer (280 mM NaCl, 1.5 mM Na2HPO4, 50 mM Hepes; pH 7.05) while vigorously vortexing. After incubation at room temperature for 15 min. to allow DNA precipitates to form, the solution was added to the cells at 10 μl/well. Cells were incubated at 37° C., 8% CO2. Twenty-four hours after transfection, cells were treated with the indicated amounts of ligand, either alone or combined with the indicated amount of antagonist. […] Another twenty-four hours later, luciferase activity was measured using the Luciferase Assay System kit (Promega) on a TopCount luminometer (Perkin-Elmer). Each transfection was done in triplicate and the average of the luciferase activity readings was used in the calculations.
Tunicamycin (Sigma T7765; 2 mg/ml stock in DMSO) was diluted in culture medium and added to the cells 24 h prior to luciferase signal read-out. […]
Target sequence in this assay (O75460 with tags, fused parts or gaps): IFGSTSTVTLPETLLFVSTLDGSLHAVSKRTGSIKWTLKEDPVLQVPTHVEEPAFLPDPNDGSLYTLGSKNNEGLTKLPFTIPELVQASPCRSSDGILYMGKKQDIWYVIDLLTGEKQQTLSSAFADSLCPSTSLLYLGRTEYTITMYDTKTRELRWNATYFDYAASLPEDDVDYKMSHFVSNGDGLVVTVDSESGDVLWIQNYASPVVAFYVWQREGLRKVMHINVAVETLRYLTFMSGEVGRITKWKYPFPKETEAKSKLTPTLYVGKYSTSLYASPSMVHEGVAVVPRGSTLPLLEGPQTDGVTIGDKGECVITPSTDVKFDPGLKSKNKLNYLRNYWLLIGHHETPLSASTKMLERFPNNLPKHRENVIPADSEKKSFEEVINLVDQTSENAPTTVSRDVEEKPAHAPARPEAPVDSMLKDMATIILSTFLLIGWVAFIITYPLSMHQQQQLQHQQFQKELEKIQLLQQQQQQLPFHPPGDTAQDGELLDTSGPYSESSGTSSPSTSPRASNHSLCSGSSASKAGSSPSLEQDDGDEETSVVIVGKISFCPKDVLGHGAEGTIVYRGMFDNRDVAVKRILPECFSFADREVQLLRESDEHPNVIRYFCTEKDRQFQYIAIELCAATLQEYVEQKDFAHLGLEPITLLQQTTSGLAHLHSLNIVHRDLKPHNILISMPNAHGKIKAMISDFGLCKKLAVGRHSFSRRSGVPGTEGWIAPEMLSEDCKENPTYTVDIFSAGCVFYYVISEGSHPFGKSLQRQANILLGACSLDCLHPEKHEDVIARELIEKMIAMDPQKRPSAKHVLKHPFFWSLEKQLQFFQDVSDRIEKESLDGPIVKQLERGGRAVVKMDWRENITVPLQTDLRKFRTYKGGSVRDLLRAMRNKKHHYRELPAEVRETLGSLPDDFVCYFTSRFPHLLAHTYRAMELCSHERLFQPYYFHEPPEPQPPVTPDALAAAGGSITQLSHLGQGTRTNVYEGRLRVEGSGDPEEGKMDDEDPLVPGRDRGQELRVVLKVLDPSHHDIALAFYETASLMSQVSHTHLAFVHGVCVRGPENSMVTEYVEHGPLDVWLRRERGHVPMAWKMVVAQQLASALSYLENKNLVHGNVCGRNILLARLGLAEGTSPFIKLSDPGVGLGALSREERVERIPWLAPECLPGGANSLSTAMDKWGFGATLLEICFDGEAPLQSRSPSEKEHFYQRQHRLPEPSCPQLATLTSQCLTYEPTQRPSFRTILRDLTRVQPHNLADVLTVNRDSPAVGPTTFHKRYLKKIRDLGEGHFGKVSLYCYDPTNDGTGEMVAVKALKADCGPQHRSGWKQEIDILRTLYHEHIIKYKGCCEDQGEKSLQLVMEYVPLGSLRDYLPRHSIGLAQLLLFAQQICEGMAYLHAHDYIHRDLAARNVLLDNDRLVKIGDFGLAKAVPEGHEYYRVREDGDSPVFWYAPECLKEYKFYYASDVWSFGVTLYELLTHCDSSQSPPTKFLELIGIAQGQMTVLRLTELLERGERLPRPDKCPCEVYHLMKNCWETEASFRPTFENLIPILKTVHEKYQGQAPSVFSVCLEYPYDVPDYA

[3] = molecular target: T2, human somatostatin receptor 2 (SSTR2) (Homo sapiens, UniProt P30874); assay: Ligand-dependent SSTR2-ARRB2 interaction, Tyk2(C)/gp130 fusion STAT3-luciferase reporter assay; format: cell-based; details: for effect of antagonist on SSTR2-ARRB2 interaction signal: 1 μM somatostatin, 0.05 or 0.5 μM CYN154806, 0.1 or 1 μM losartan or telmisartan, FIG. 4 transfection b; for effect of antagonist on SSTR2-ARRB2 interaction signal, dose-response: 10 μM somatostatin, antagonist 10^-13 M up to 10^-6 M, FIG. 5A
T2 construct: expressed in transfected cells; host or cells: HEK293-T
T2 sequence (P30874 with tags, fused parts or gaps): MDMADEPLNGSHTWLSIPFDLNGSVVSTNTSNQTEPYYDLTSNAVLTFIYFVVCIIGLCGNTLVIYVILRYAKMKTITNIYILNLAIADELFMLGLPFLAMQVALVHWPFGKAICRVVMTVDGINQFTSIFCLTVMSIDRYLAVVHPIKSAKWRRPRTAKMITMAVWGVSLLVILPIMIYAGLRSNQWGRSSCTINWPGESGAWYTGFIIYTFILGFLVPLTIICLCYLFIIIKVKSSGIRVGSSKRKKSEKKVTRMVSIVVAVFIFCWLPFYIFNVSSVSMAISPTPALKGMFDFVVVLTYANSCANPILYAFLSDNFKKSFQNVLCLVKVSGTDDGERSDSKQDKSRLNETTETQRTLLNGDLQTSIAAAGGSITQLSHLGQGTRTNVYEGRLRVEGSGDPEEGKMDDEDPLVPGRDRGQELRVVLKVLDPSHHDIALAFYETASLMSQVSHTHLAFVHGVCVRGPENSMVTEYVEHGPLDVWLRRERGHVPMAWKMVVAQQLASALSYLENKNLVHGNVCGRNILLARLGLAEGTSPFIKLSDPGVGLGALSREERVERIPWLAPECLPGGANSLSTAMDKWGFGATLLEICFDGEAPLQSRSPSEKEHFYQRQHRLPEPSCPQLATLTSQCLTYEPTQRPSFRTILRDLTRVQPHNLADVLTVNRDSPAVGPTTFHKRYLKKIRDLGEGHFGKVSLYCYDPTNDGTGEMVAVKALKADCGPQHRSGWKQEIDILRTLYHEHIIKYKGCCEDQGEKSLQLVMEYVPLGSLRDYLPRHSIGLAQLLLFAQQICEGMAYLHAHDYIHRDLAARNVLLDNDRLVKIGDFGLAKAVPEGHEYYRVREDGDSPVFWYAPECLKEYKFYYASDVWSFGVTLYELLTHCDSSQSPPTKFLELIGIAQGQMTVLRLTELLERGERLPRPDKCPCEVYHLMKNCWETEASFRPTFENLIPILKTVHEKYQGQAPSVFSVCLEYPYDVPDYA
Description: (§1) The membrane span protein (X) is fused to the C-terminal region of Tyk2 comprising the kinase domain, whereas the polypeptide interacting with the membrane span protein (Y) is fused to a fragment of gp130 which contains phosphorylation sites. When membrane span protein X and the polypeptide Y interact, the Tyk2 kinase domain phosphorylates the phosphorylation sites of gp130. STAT3 transcription factors are recruited to these phosphorylated sites and are in turn phosphorylated by the Tyk2 kinase domain, which results in their activation. Dimers of activated STAT3 transcription factors are able to bind the specific rPAPI promoter, which drives the expression of a firefly luciferase reporter gene. The activity of this reporter gene is measured as light production in a luciferase detection assay using a luminometer.
(§2) The fold induction for each sample was calculated as the ratio of the measured luciferase activity relative to the luciferase activity for the untreated sample of the same transfection.
The assay was further optimized by transferring the Tyk2(C) fusion construct into another vector system (pSVSport) and testing the resulting constructs in a similar experiment as described above. The following combinations of plasmids were transfected (500 ng of the Tyk2(C) fusion construct, 250 ng of the gp130 fusion construct and 50 ng of the luciferase reporter construct) according to the methods described above: […]

[4] = molecular target: T3, human angiotensin receptor 1 (AGTR1) (Homo sapiens, UniProt P30556); assay: Ligand-dependent AGTR1-ARRB2 interaction, Tyk2(C)/gp130 fusion STAT3-luciferase reporter assay; format: cell-based; details: 10 μM angiotensin II; for effect of antagonist on AGTR1-ARRB2 interaction signal: 0.05 or 0.5 μM CYN154806, 0.1 or 1 μM losartan or telmisartan, FIG. 4 transfection d; for effect of antagonist on AGTR1-ARRB2 interaction signal, dose-response: antagonist 10^-13 M up to 10^-6 M
T3 construct: expressed in transfected cells; host or cells: HEK293-T
T3 sequence (P30556 with tags, fused parts or gaps): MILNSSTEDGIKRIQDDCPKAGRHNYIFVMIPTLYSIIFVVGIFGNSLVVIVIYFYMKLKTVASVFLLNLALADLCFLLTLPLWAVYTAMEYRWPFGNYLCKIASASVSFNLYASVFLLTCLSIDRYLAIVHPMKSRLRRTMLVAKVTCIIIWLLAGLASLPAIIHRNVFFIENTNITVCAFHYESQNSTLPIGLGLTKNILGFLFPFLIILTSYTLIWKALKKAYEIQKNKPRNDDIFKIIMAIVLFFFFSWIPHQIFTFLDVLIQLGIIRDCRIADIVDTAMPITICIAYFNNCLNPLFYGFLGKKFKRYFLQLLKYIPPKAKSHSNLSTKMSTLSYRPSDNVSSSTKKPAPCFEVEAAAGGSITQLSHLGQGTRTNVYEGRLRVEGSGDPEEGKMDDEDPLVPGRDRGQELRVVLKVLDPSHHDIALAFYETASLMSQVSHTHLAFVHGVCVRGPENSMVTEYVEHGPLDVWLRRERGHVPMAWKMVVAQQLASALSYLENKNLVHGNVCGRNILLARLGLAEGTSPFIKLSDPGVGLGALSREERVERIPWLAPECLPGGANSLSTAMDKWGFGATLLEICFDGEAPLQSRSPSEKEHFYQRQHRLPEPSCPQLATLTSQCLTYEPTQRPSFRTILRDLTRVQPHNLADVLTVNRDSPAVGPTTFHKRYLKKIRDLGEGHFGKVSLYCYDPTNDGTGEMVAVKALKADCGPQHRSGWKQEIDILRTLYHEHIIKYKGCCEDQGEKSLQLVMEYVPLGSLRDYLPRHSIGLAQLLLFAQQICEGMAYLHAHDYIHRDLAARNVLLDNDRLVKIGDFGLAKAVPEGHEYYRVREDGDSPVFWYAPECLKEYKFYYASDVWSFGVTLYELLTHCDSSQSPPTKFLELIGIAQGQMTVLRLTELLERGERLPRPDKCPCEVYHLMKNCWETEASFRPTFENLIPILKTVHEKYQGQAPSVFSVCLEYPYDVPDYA
Description: as §1
Transfections were carried out using a standard calcium phosphate method. HEK293-T cells were seeded in black tissue-culture treated 96-well plates at 10.000 cells/well in 100 μl culture medium (DMEM supplemented with 10% FCS). Twenty-four hours later, plasmid DNA mixes were prepared that contained plasmids encoding fusion proteins with the first and second interacting proteins and reporter plasmids. The DNA was supplemented with 5 μl 2.5M CaCl2) and double distilled water to a final volume of 50 μl. This mixture was added drop wise to 50 μl 2×HeBS buffer (280 mM NaCl, 1.5 mM Na2HPO4, 50 mM Hepes; pH 7.05) while vigorously vortexing. After incubation at room temperature for 15 min. to allow DNA precipitates to form, the solution was added to the cells at 10 μl/well. Cells were incubated at 37° C., 8% CO2. Twenty-four hours after transfection, cells were treated with the indicated amounts of ligand, either alone or combined with the indicated amount of antagonist. In the case of Irestatin 9389, cells were pre-treated with the antagonist before adding vehicle (DMSO) or tunicamycin. Another twenty-four hours later, luciferase activity was measured using the Luciferase Assay System kit (Promega) on a TopCount luminometer (Perkin-Elmer). Each transfection was done in triplicate and the average of the luciferase activity readings was used in the calculations.
as §2
Cells were transfected with the following combinations of plasmids (250 ng of the Tyk2(C) fusion construct, 250 ng of the gp130 fusion construct and 50 ng of the luciferase reporter construct) according to the methods described above:
Cells were transfected with 125 ng of the pMet7-SSTR2-Tyk2(C)−HA or pMet7-AGTR1-Tyk2(C)−HA fusion construct, 250 ng of the pMG2-ARRB2 gp130 fusion construct and 50 ng of the pXP2d2-rPAPI-luciferase reporter plasmid, according to the methods described above.

effect of antagonist on SSTR2-ARRB2 interaction signal [3] | effect of antagonist on SSTR2-ARRB2 interaction signal, dose-response [3] | effect of antagonist on AGTR1-ARRB2 interaction signal [4] | effect of antagonist on AGTR1-ARRB2 interaction signal, dose-response ([4]; FIG. 5B) | effect of telmisartan compared to losartan on AGTR1-ARRB2 interaction ([4]; dose-response, FIG. 5B) | Compound | ERN1 endonuclease activity (ERN1 [1]) | disruption of ERN1 dimerization (ERN1 [2]; 1 μg/ml tunicamycin or vehicle (DMSO) combined with increasing doses of Irestatin 9389, FIG. 6D) | luciferase signal of ERN1 dimerization upon induction of ER-stress (ERN1 [2]; HEK293-T cells, ERN1-Tyk2(C) + ERN1-gp130, 0-0.5-1-2 μg/ml tunicamycin, FIG. 6A)
 |  |  |  |  | Cc1csc(NC(=O)CSc2nc3c(c(C(F)(F)F)c2C#N)CCC3)n1 [Irestatin 9389] | inhibit ERN1 endonuclease activity | dose-dependent disruption of ERN1 dimerization | 
no effect | no effect | selectively inhibited | selectively and completely inhibited |  | CCCCc1nc(Cl)c(CO)n1Cc1ccc(-c2ccccc2-c2nn[nH]n2)cc1 [losartan] |  |  | 
no effect | no effect | selectively inhibited | selectively and completely inhibited | stronger effect | CCCc1nc2c(C)cc(-c3nc4ccccc4n3C)cc2n1Cc1ccc(-c2ccccc2C(=O)O)cc1 [telmisartan] |  |  | 
 |  |  |  |  | tunicamycin |  |  | dose-dependent signal
